Consider five molecules from article PMC3086427 (Clinical cancer research : an official journal of the …, 2008).

Data set [1] in a line: Plasma pharmacokinetics of EKB-569 and its N-desmethyl metabolite at the MTD.
A short description of a further data set: clinical. The following applies: human, in vivo, po; for half-life: T1/2.
For data set [2] the following is noted: in vivo.
The subject of another data set is colorectal cancer. The following applies: 5-FU chemotherapy regimens, advanced-stage CRC; cited from earlier work.
The conditions of data set [3]: cited from earlier work.
For data set [4] the following is noted: p.o., continuous schedule, cited from earlier work.
The test system of a further data set is phosphorylated EGFR. To be noted: 25 mg EKB-569 with full-dose Irinotecan and infusional 5-FU; cited from earlier work.

Like-named read-outs stand apart in the source and are kept apart here. Bounds are passed on as bounds.

Turning to `CCOc1cc2ncc(C#N)c(Nc3ccc(F)c(Cl)c3)c2cc1NC(=O)/C=C/CNC` [N-desmethyl EKB-569], in data set [1] (human, in vivo, po), the AUC is 64.4 ± 43.3 ng·h/mL, the Cmax was 4.2 ± 3.2 ng/mL, the T1/2 was 24.1 ± 9.2 h and the Tmax is 3.5 (2–6) h.
For `C[C@H]1O[C@@H](n2cc(F)c(=O)[nH]c2=O)[C@H](O)[C@@H]1O` [5′-DFUR, 5′-deoxy-5-fluorouridine], in “clinical”, the half-life was 43.2 ± 8.4 min and the Tmax stood at 2 h. Also, in data set [2] (human), the “increase in AUC[0-t] in combination with EKB-569 versus capecitabine alone” value is reported as 28% and the “increase in AUC[0-∞] in combination with EKB-569 versus capecitabine alone” value amounted to 31%.
Regarding `O=c1[nH]cc(F)c(=O)[nH]1` [5-FU, 5-fluorouracil], the objective response rate in the data set with colorectal cancer is reported as ~ 20%. For the same molecule, in data set [3] (alone or with other anticancer agents, from no increase upward), the “increase in 5-FU exposure with continual administration of capecitabine” value is on record as not above 83%. Moreover, the “interpatient variability of 5-FU AUC” value in data set [3] (continued daily dosing of capecitabine, day 14) was 85%. The “AUC of 5-FU on day 14 higher than after a single dose” value in data set [3] (continued daily dosing of capecitabine) is given as 34%. In data set [2] (human), the “increase in AUC[0-t] in combination with EKB-569 versus capecitabine alone” value worked out at 88% and the “increase in AUC[0-∞] in combination with EKB-569 versus capecitabine alone” value turned out to be 81%. For the same molecule, in data set [2] (human, po), the T1/2 amounted to 43.8 ± 10.2 min and the Tmax is 2.00 (0.50–4.00) h.
For the molecule `CCCCCOC(=O)Nc1nc(=O)n([C@@H]2O[C@H](C)[C@@H](O)[C@H]2O)cc1F` [capecitabine, reference compound], in the data set “clinical”, the half-life was 31.2 ± 10.2 min and the Tmax came to 1 h. Besides, the mean terminal half-life entry in data set [2] (human) is listed as “half an hour”. Further, the “time at which Cmax was observed after p.o. administration” value in data set [2] (human, po) came to 1 h. The “difference of pharmacokinetic variables, monotherapy vs combination therapy” value in data set [2] is on record as “no statistically significant difference”. The “dose reductions of the agent secondary to diarrhea” value (human, in vivo) came out at 60%. Also, where the note is “twice daily for 14 days of a 21-day cycle, with EKB-569 50 mg daily”, the “MTD of capecitabine combined with EKB-569” value is on record as 1,000 mg/m^2.
Turning to `CCOc1cc2ncc(C#N)c(Nc3ccc(F)c(Cl)c3)c2cc1NC(=O)/C=C/CN(C)C` [EKB-569], the “well-tolerated dose, single agent” value in data set [4] (patients with advanced solid tumors) was “up to 75 mg per day”. The “principal toxicities, single agent” value in data set [4] was “diarrhea and skin rash”. Also, the “inhibition of phosphorylated EGFR and downstream signaling pathways in skin and tumor samples” value in the data set with phosphorylated EGFR is on record as “complete inhibition”. Further, the “Cl/F (oral clearance)” value in data set [1] (day 8, 50 mg EKB-569 p.o. daily with 1,000 mg/m^2 capecitabine, mean ± SD) came to 57 ± 24 L/h. The “coefficient of variation values for Cmax and AUC (intersubject variability)” value in data set [1] (day 8, MTD) is reported as less than 40%. Also, the half-life in data set [1] (human, plasma, po) is 996 ± 222 min. Also, the “patients who required a dose reduction of the agent at the MTD” value (EKB-569 50 mg daily and capecitabine 1,000 mg/m^2 twice daily) is on record as “four”. For the same molecule, under “daily, p.o., 21-day cycle, with capecitabine 1,000 mg/m^2 twice daily”, the “MTD of EKB-569 combined with capecitabine” value amounted to 50 mg.
